Test results reported in patent publication US20130261077A1 (priority 2012, published 2013).

How the values were obtained:
FimH-CRD [1] = target: T1, FimH-CRD (Escherichia coli, UniProt P08191); assay: Competitive binding assay by fluorescence polarization, assay 2 (compounds prepared by robotics, plates frozen and thawed)
T1 construct: The first 177 amino acids of the FimH protein; thrombin tag (printed as 'fusion protein with thrombin') (cleaved yes); made in house; host or cells: bacteria (pET21b plasmid)
In short: (§1)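 Compounds at 0.4 nM–75 μM final (12 points, 3-fold steps, duplicate) compete with a 5 nM Alexa 647 mannoside probe for 60 nM FimH-CRD; 5 h room-temperature incubation in pH 7.0 Tris buffer with 2.5% DMSO, FP read-out, Kd from fitted curves. Assay 1 uses manual dilution, assay 2 robot-made frozen/thawed plates.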

FimH-CRD [2] = target: T1, FimH-CRD; assay: Competitive binding assay by fluorescence polarization, assay 1 (compounds prepared by manual serial dilution)
In short: as §1

T1 sequence (P08191 22-177): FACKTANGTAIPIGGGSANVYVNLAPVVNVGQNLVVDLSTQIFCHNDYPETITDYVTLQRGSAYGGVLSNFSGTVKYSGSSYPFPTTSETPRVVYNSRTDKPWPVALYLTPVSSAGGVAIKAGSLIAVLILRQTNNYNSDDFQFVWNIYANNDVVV

Compound | Kd (FimH-CRD [1]) [µM] | IC50 (FimH-CRD [2]) [µM] | Kd (FimH-CRD [2]) [µM]
Cn1cnc2ccc(-c3cccc([C@H]4O[C@H](CO)[C@@H](O)[C@H](O)[C@@H]4O)c3)cc21 [Compound 4, (2R,3S,4R,5S,6R)-2-(hydroxymethyl)-6-[3-(3-methylbenzimidazol-5-yl)phenyl]tetrahydropyran-3,4,5-triol] | 0.0136 ± 0.0061 | 0.019 | 0.0051 ± 0.0001
OC[C@H]1O[C@H](c2cccc(-c3cncnc3)c2)[C@@H](O)[C@@H](O)[C@@H]1O [Compound 10, (2R,3S,4R,5S,6R)-2-(hydroxymethyl)-6-(3-pyrimidin-5-ylphenyl)tetrahydropyran-3,4,5-triol] | 0.0101 ± 0.0006 | 0.099 | 0.0134 ± 0.0066
OC[C@H]1O[C@H](c2cccc(-c3cc4ccccc4s3)c2)[C@@H](O)[C@@H](O)[C@@H]1O [Compound 12, (2R,3S,4R,5S,6R)-2-[3-(benzothiophen-2-yl)phenyl]-6-(hydroxymethyl)tetrahydropyran-3,4,5-triol] | 0.0117 ± 0.0061 | 0.067 | 0.0092 ± 0.0044
N#Cc1ccc(-c2cccc([C@H]3O[C@H](CO)[C@@H](O)[C@H](O)[C@@H]3O)c2)cc1 [Compound 22, 3′-((2R,3S,4R,5S,6R)-3,4,5-trihydroxy-6-(hydroxymethyl)tetrahydro-2H-pyran-2-yl)-[1,1′-biphenyl]-4-carbonitrile] | 0.0142 ± 0.0111 | 0.049 | 0.0066 ± 0.0008
CNC(=O)c1cccc([C@H]2O[C@H](CO)[C@@H](O)[C@H](O)[C@@H]2O)c1 [Compound 35, N-methyl-3-((2R,3S,4R,5S,6R)-3,4,5-trihydroxy-6-(hydroxymethyl)tetrahydro-2H-pyran-2-yl)benzamide] | 0.113 | 0.172 | 0.0562 ± 0.0049
OC[C@H]1O[C@H](c2cccc(Oc3ncccn3)c2)[C@@H](O)[C@@H](O)[C@@H]1O [Compound 256, (2R,3S,4R,5S,6R)-2-(hydroxymethyl)-6-(3-pyrimidin-2-yloxyphenyl)tetrahydropyran-3,4,5-triol] | 0.0676 ± 0.0218 |  | 
O=[N+]([O-])c1ccc(Oc2cccc([C@H]3O[C@H](CO)[C@@H](O)[C@H](O)[C@@H]3O)c2)cn1 [Compound 257, (2R,3S,4R,5S,6R)-2-(hydroxymethyl)-6-[3-[(6-nitro-3-pyridyl)oxy]phenyl]tetrahydropyran-3,4,5-triol] | 0.0192 ± 0.0063 |  | 
Nc1ccc(Oc2cccc([C@H]3O[C@H](CO)[C@@H](O)[C@H](O)[C@@H]3O)c2)cn1 [Compound 258, (2R,3S,4R,5S,6R)-2-[3-[(6-amino-3-pyridyl)oxy]phenyl]-6-(hydroxymethyl)tetrahydropyran-3,4,5-triol] | 0.0319 ± 0.0063 |  | 
OCc1cccc([C@H]2O[C@H](CO)[C@@H](O)[C@H](O)[C@@H]2O)c1 [Compound 260, (2R,3S,4R,5S,6R)-2-(hydroxymethyl)-6-[3-(hydroxymethyl)phenyl]tetrahydropyran-3,4,5-triol] | 0.125 ± 0.0526 |  | 
COC(=O)c1ccc(OCc2cccc([C@H]3O[C@H](CO)[C@@H](O)[C@H](O)[C@@H]3O)c2)cc1 [Compound 261, methyl 4-[[3-[(2R,3S,4R,5S,6R)-3,4,5-trihydroxy-6-(hydroxymethyl)tetrahydropyran-2-yl]phenyl]methoxy]benzoate] | 0.0322 ± 0.0081 |  | 
OC[C@H]1O[C@H](c2cccc(COc3ccccc3)c2)[C@@H](O)[C@@H](O)[C@@H]1O [Compound 262, (2R,3S,4R,5S,6R)-2-(hydroxymethyl)-6-[3-(phenoxymethyl)phenyl]tetrahydropyran-3,4,5-triol] | 0.0266 ± 0.0114 |  | 
OC[C@H]1O[C@H](c2cccc(COc3cc(Cl)cc(Cl)c3)c2)[C@@H](O)[C@@H](O)[C@@H]1O [Compound 263, (2R,3S,4R,5S,6R)-2-[3-[(3,5-dichlorophenoxy)methyl]phenyl]-6-(hydroxymethyl)tetrahydropyran-3,4,5-triol] | 0.0223 ± 0.005 |  | 
CNC(=O)c1ccc(OCc2cccc([C@H]3O[C@H](CO)[C@@H](O)[C@H](O)[C@@H]3O)c2)cc1 [Compound 264, N-methyl-4-[[3-[(2R,3S,4R,5S,6R)-3,4,5-trihydroxy-6-(hydroxymethyl)tetrahydropyran-2-yl]phenyl]methoxy]benzamide] | 0.0308 ± 0.0091 |  | 
